Legend:
Format in all cases: functional
Raji = test: Cytotoxicity against Homo sapiens (human) Raji cells assessed as cell viability after 72 hr by MTT assay
[1] = Cytotoxicity against Homo sapiens (human) LS180 cells assessed as cell viability after 72 hr by MTT assay; details: LS180, 72 h
HeLa = test: Cytotoxicity against Homo sapiens (human) HeLa cells assessed as cell viability after […] by MTT assay

Structure (SMILES)	IC15 (Raji) [µM]	IC30 (Raji) [µM]	IC15 [1] [µM]	IC30 [1] [µM]	IC15 (HeLa) [µM]	IC30 (HeLa) [µM]
Cc1ccccc1N=C1C(=O)Nc2ccccc21	64.8	> 100	> 100	> 100	12.3	52.6
O=C1Nc2ccccc2/C1=N/Nc1ccc([N+](=O)[O-])cc1	17	> 100	5.2	21.8	3	12.2
O=C1Nc2ccccc2/C1=N\c1ccc(Cl)cc1	35.4	88.1	> 100	> 100	15.4	80.2
O=C1Nc2ccccc2/C1=N/c1cccc2ccccc12	48.8	> 100	20.8	> 100	15.8	55.9
Cc1nc(Cl)cc(/N=C2\C(=O)Nc3ccccc32)n1	> 100	> 100	> 100	> 100	17.4	> 100
O=C1Nc2ccccc2/C1=N/c1ccc(Cl)cn1	> 100	> 100	> 100	> 100	21.6	65.1
O=C1Nc2ccccc2/C1=N/c1nc2ccccc2[nH]1	15.6	> 100	> 100	> 100	43.2	> 100
O=C1Nc2ccccc2/C1=N/c1nc(Cl)cs1	57.3	> 100	> 100	> 100	3.2	35.9
Cc1conc1/N=C1\C(=O)Nc2ccccc21	30.1	> 100	> 100	> 100	49.6	> 100
